In PubChem BioAssay AID2060509 (Molecular Pharmacology Branch, DTP, NCI, 2025):
pIC50: −log10 of the molar value.

System: 485176-168-R4-J1-PDC spheroids with HUVEC/MSC, viability
Test: Anticancer human tumor 485176-168-R4-J1-PDC patient-derived pancreatic adenocarcinoma cell line growth inhibition [GQUAD]
Settings: for pIC50: curve of first compound; for viability, T/C: stronger effect = lower value
From the text: DNA G-quadruplex Stabilizer Agents in Combinations in Complex Spheroids
A high-throughput screen of multi-cell type tumor spheroids was designed to identify active combinations of DNA G-quadruplex stabilizer agents and targeted small molecules. Complex spheroids include a stromal component modeled by human endothelial cells (HUVEC) and fibroblasts modeled by human mesenchymal stem cells (MSCs). The concentration ranges selected for each drug and investigational agent were based upon clinically achievable concentrations if the clinical Cmax of the agent was known.
Compounds. The drugs and investigational agents: pidnarulex (CX-5461; NSC782164), APTO-253 (NSC789042), BRACO-19 (NSC847499), peposertib (NSC802822), ceralasertib (NSC780249), elimusertib (NSC800525), camonsertib (NSC841442), AZD-1390 (NSC803789), olaparib (NSC753686), talazoparib (NSC767125), ART-558 (NSC835418), sotorasib (NSC818433), MRTX-1133 (NSC836407), SN-38 (NSC673596), topotecan (NSC609699), etoposide (NSC141540), doxorubicin (NSC123127), gemcitabine (NSC613327), 5-fluorouracil (NSC19893), paclitaxel (NSC125973), vemurafenib (NSC761431), panobinostat (NSC761190), R-306465 (JNJ-16241199; NSC773264), adavosertib (NSC754352), TP-3654 (NSC805149), carboplatin (NSC241240), KSQ-4279 (NSC840948), and staurosporine (NSC755774) were obtained from the National Cancer Institute (NCI) Developmental Therapeutics Program Chemical Repository (34). The FDA-approved anticancer drug set is available from the NCI Developmental Therapeutics Program. […] The stock solutions were prepared in dimethyl sulfoxide (DMSO, Sigma-Aldrich, St. Louis, MO, cat. D2650) at 800-fold the tested concentration and stored at -70 degrees C prior to their use. All drugs and investigational agents were tested over a range starting from a high concentration at or near the clinical Cmax and decreasing in half-log increments. If the clinical Cmax for an agent had not been determined, the highest concentration tested was 10 microM.
2.3 Cell Culture. All cells were maintained in an incubator at 37 degrees C and 5% CO2 with 95% humidity. The PDC lines were cultured according to standard operating procedures established by the NCI PDMR. All PDCs were thawed and cultured in Matrigel-coated flasks prepared with a working solution of 1X Ham's F-12 nutrient mix, without supplementation (Invitrogen, cat. 11765054), 100 U/mL penicillin-streptomycin (Invitrogen, cat. 15140122), and 2.5% Matrigel (Corning Inc., cat. 354248) for the first three passages. The 857933-349-R-J2-PDC line was cultured in 6C/Colon 1B media, which includes advanced DMEM/F-12 (Thermo Fisher Scientific, cat. 12634028), 10 mM HEPES (Thermo Fisher Scientific, cat. 15630080), 1X GlutaMAX supplement (Thermo Fisher Scientific, cat. 35050061), 0.1 mg/mL primocin (InvivoGen, cat. ant-pm-2), 10% defined fetal bovine serum, heat inactivated (HyClone Laboratories Inc., cat. SH30070.03HI), 50% L-WRN conditioned media (ATCC, cat. CRL-3276), 1.25 mM N-Acetyl-L-cysteine (Sigma-Aldrich, cat. A9165), 10 mM nicotinamide (Sigma-Aldrich, cat. N0636), 1X B-27 supplement (Thermo Fisher Scientific, cat. 17504044), 1X N-2 supplement (Thermo Fisher Scientific, cat. 17502048), 10 microM Y-27632 dihydrochloride (Tocris Bioscience, cat. 1254), and 50 ng/mL human EGF recombinant protein (Thermo Fisher Scientific, cat. PHG0311). The 485176-168-R4-J1-PDC line was cultured in Panc media, which includes all 6C/Colon 1B media components plus 100 ng/mL human FGF-10 (Thermo Fisher Scientific, cat. 100-26), 500 nM SB-431542 (Selleckchem, cat. S1067), and gastrin (Tocris, cat. 3006).
[…]

[1] = second compound 0.0316 µM, first compound 0.0316 µM
[2] = second compound 0.0316 µM, first compound 0.1 µM
[3] = second compound 0.0316 µM, first compound 0.316 µM
[4] = second compound 0.0316 µM, first compound 1 µM
[5] = second compound 0.0316 µM, first compound 3.16 µM
[6] = second compound 0.0316 µM, first compound 10 µM
[7] = second compound 0.1 µM, first compound 0.0316 µM
[8] = second compound 0.1 µM, first compound 0.1 µM
[9] = second compound 0.1 µM, first compound 0.316 µM
[10] = second compound 0.1 µM, first compound 1 µM
[11] = second compound 0.1 µM, first compound 3.16 µM
[12] = second compound 0.1 µM, first compound 10 µM
[13] = second compound 0.316 µM, first compound 0.0316 µM
[14] = second compound 0.316 µM, first compound 0.1 µM
[15] = second compound 0.316 µM, first compound 0.316 µM
[16] = second compound 0.316 µM, first compound 1 µM
[17] = second compound 0.316 µM, first compound 3.16 µM
[18] = second compound 0.316 µM, first compound 10 µM
[19] = second compound 1 µM, first compound 0.0316 µM
[20] = second compound 1 µM, first compound 0.1 µM
[21] = second compound 1 µM, first compound 0.316 µM
[22] = second compound 1 µM, first compound 1 µM
[23] = second compound 1 µM, first compound 3.16 µM
[24] = second compound 1 µM, first compound 10 µM
[25] = second compound 3.16 µM, first compound 0.0316 µM
[26] = second compound 3.16 µM, first compound 0.1 µM
[27] = second compound 3.16 µM, first compound 0.316 µM
[28] = second compound 3.16 µM, first compound 1 µM
[29] = second compound 3.16 µM, first compound 3.16 µM
[30] = second compound 3.16 µM, first compound 10 µM
[31] = second compound 10 µM, first compound 0.0316 µM
[32] = second compound 10 µM, first compound 0.1 µM
[33] = second compound 10 µM, first compound 0.316 µM
[34] = second compound 10 µM, first compound 1 µM
[35] = second compound 10 µM, first compound 3.16 µM
[36] = second compound 10 µM, first compound 10 µM
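Note: spheroids exposed to compounds for seven days before readout.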
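Throughout, for viability, T/C: percent viability relative to DMSO vehicle control wells as 100%.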

For `COc1cccc2c1C(=O)c1c(O)c3c(c(O)c1C2=O)CC(O)(C(=O)CO)CC3OC1CC(N)C(O)C(C)O1` (centres undefined) + CN(C)c1ccc(Nc2c3ccc(NC(=O)CCN4CCCC4)cc3nc3cc(NC(=O)CCN4CCCC4)ccc23)cc1, the pIC50 (second compound 0.0316 µM) was 6.57, the pIC50 (second compound 0.1 µM) was 6.58 and the pIC50 (second compound 0.316 µM) was 6.38. For the same compound, the pIC50 (second compound 1 µM) was 6.39, the pIC50 (second compound 3.16 µM) was 6.40 and the pIC50 (second compound 10 µM) was 6.52. For the same compound, the viability, T/C [1] was 104%, the viability, T/C [2] was 65.5% and the viability, T/C [3] was 59.2%. The viability, T/C [4] was 15.4%, the viability, T/C [5] was 3.54% and the viability, T/C [6] was 0.22%. The viability, T/C [7] was 95.2%, the viability, T/C [8] was 70.9% and the viability, T/C [9] was 49.2%. It also gave a viability, T/C [10] of 17.8%, a viability, T/C [11] of 2.43% and a viability, T/C [12] of 0.16%. The viability, T/C [13] was 84.9%, the viability, T/C [14] was 67% and the viability, T/C [15] was 62%. It also gave a viability, T/C [16] of 22.5%, a viability, T/C [17] of 3.97% and a viability, T/C [18] of 0.2%. For the same compound, the viability, T/C [19] was 99.5%, the viability, T/C [20] was 78.2% and the viability, T/C [21] was 64.1%. For the same compound, the viability, T/C [22] was 17.4%, the viability, T/C [23] was 4.15% and the viability, T/C [24] was 0.16%. For the same compound, the viability, T/C [25] was 84.2%, the viability, T/C [26] was 83.2% and the viability, T/C [27] was 53.4%. It also gave a viability, T/C [28] of 25.7%, a viability, T/C [29] of 2.96% and a viability, T/C [30] of 0.21%. The viability, T/C [31] was 72.2%, the viability, T/C [32] was 68.4% and the viability, T/C [33] was 48.5%. For the same compound, the viability, T/C [34] was 22.9%, the viability, T/C [35] was 5.36% and the viability, T/C [36] was 0.33%.

Compound `Nc1ccn(C2OC(CO)C(O)C2(F)F)c(=O)n1` (centres undefined) + CN(C)c1ccc(Nc2c3ccc(NC(=O)CCN4CCCC4)cc3nc3cc(NC(=O)CCN4CCCC4)ccc23)cc1 has a pIC50 (second compound 0.0316 µM) of 7.31, a pIC50 (second compound 0.1 µM) of 7.34 and a pIC50 (second compound 0.316 µM) of 7.36. For the same compound, the pIC50 (second compound 1 µM) was 7.21, the pIC50 (second compound 3.16 µM) was 7.25 and the pIC50 (second compound 10 µM) was 7.38. It also gave a viability, T/C [1] of 70.3%, a viability, T/C [2] of 17.4% and a viability, T/C [3] of 10.6%. It also gave a viability, T/C [4] of 9.81%, a viability, T/C [5] of 10.5% and a viability, T/C [6] of 12.1%. It also gave a viability, T/C [7] of 63.7%, a viability, T/C [8] of 22% and a viability, T/C [9] of 10.5%. The viability, T/C [10] was 10.5%, the viability, T/C [11] was 10.3% and the viability, T/C [12] was 10.9%. The viability, T/C [13] was 62.1%, the viability, T/C [14] was 19.4% and the viability, T/C [15] was 10.4%. The viability, T/C [16] was 10.9%, the viability, T/C [17] was 10.5% and the viability, T/C [18] was 13.7%. For the same compound, the viability, T/C [19] was 90.1%, the viability, T/C [20] was 20.1% and the viability, T/C [21] was 10.6%. It also gave a viability, T/C [22] of 12.5%, a viability, T/C [23] of 11.6% and a viability, T/C [24] of 9.65%. It also gave a viability, T/C [25] of 81.3%, a viability, T/C [26] of 18.1% and a viability, T/C [27] of 10.6%. The viability, T/C [28] was 11.5%, the viability, T/C [29] was 10% and the viability, T/C [30] was 11.9%. For the same compound, the viability, T/C [31] was 58%, the viability, T/C [32] was 23.7% and the viability, T/C [33] was 10.4%. For the same compound, the viability, T/C [34] was 10.9%, the viability, T/C [35] was 11.1% and the viability, T/C [36] was 11.2%.
